Results on 15 molecules are retold here after patent US9701681B2, “Fused ring heteroaryl compounds and their use as Trk inhibitors” (CMG Pharmaceutical Co., Ltd., priority 2014, dated 2017).

In assay [1] the test system is TF-1 cells. In words: Cell proliferation assay (TF-1). The settings on record: 10 ng/ml human β-NGF, 72 hours exposure, read-out: IC50 (nM) Cell-based assay (TF-1). As for the experimental part: (§1) Doxorubicin was purchased from Sigma Aldrich (D1515). All compounds were diluted in DMSO (Sigma Aldrich, D2650). AlamarBlue® cell viability reagent was purchased from Thermo Scientific (88952). CellTiter 96® AQueous One Solution Cell proliferation assay was purchased from Promega. KM12-luc cells were obtained from JCRB (National Institute of Health Sciences, Tokyo, Japan). They were maintained in DMEM medium (GIB-11965-118) supplemented with 10% fetal bovine serum (Gibco, 16000-044) and MEM Non-Essential Amino Acids Solution (Thermo Scientific, 11140-050). TF-1 cells were obtained from ATCC. They were maintained in RPMI medium (GIB-A10491) supplemented with 10% fetal bovine serum (Gibco, 16000-044), GM-CSF (Thermo Scientific, 11140-050), and β-NGF (R&D systems). Trypsin/EDTA was purchased from Gibco (GIB-25300-054, 0.05%). 96-well plates were purchased from Corning Inc.
(§2) The proliferation assay was performed for Chemical Compounds 1-61 s in media supplemented with 10% FBS, using AlamarBlue® cell viability reagent or CellTiter 96® AQueous One Solution Cell proliferation assay kit. Cells were cultured in humidified 37° C. incubator with 5% CO2. To evaluate the antiproliferation activity of compounds, TF-1 cells were adjusted to GM-CSF free media (RPMI, 10% FBS, and 1% penicillin-streptomycin) for 16 hr and were seeded in 96-well plates at 30,000 cells/well with medium (RPMI, 10% FBS, 1% penicillin-streptomycin and 10 ng/ml human β-NGF). KM12-luc were seeded at 10,000 cells per well into 96-well plates. After overnight incubation, serial dilutions of compounds were added to triplicate wells, and cells were exposed for 72 hours. The final concentration of DMSO was adjusted to 0.5% in media. Quantitation of cell growth was assessed using two kinds of reagent. 20 ul of AlamarBlue® reagent in an amount equal to 10% of the culture volume was added to each well and were incubated in humidified 37° C. incubator with 5% CO2 for 2 hr. Otherwise, 20 ul of CellTiter 96® reagent was added to each well and were incubated in the same conditions as previously described. Data were plotted, and GI50 values were calculated using GraphPad software. Table 1 below includes the results of the assays.

The test system of assay [2] is KM12-luc cells. In words: Cell proliferation assay (KM12). The settings on record: 72 hours exposure, read-out: IC50 (nM) Cell-based assay (KM12). The procedure:
as §1, §2

Assay [3] concerns the target T1, TRK A, B & C kinase.
T1 construct: fused on or other part: Carna's Trk kinases are usually GST-tagged cytoplasmic domains
In words: TRK A, B & C kinase assay (ADP-Glo / HTRF KinEASE-TK). The assay is classed as biochemical. Particulars: ADP-Glo or HTRF KinEASE-TK kit, isoform not specified, read-out: IC50 (nM) Enzymatic assay. The procedure: ADP-Glo assay kit was purchased from Promega. poly (Glu, Tyr), Magnesium sulfate, Bovine serum albumin (BSA) and dimethylsulfoxide(DMSO) were purchased from Sigma-Aldrich. Tris-HCl buffer was purchased from BD Gentest. HTRF KinEASE-TK kit was purchased from cisbio. TRK A, B & C kinase was purchased from Carna bioscience.
Kinase assay was performed for Chemical Compounds 1-61 using two methods using luminescent ADP-Glo assay kit (Promega) and HTRF KinEASE-TK assay kit (cisbio). The luminescent ADP-Glo assay kit (Promega) measures ADP formed from a kinase reaction. ADP converted into ATP, which is then converted into light by Ultra-Glo luciferase. The HTRF KinEASE-TK assay kit (cisbio) measures tyrosine kinase activities using one substrate and a universal detection system.
ADP-Glo Assay Kit (Promega)
The protein kinase assay was performed for Chemical Compounds 1-61 at […] concentrations are 0.4 ng/ul of TrKA, 0.5 ng/ul of TrKB and 3 ng/ul of TrKC, respectively), 5 μL of 1 ug/ul stock solution of poly(glu, Tyr), 5 μL of compounds or assay buffer, 5 μL of ATP (125 μM stock solution).
The assay was started by incubating the reaction mixture in a 96-well plate at 30° C. for 1 hr. After the incubation, the assay was terminated by the addition of 25 […] Detection Reagent was added, and the 96-well plate was shaken and then incubated for additional 30 min at ambient temperature. The 96-well reaction plate was then read on an Enspire plate reader. The IC50 values were derived through a curve fitting using SigmaPlot.
HTRF KinEASE-TK Assay Kit (Cisbio)
The HTRF KinEASE-TK assay was performed for Chemical Compounds 1-61 in 384-well low volume microplate (Greiner). The HTRF KinEASE-TK assay format involves the two steps. The first step is kinase reaction step. This kinase reaction step was performed at RT (room temperature) in final volume of 10 ul according to the following assay reaction recipe: 10 ul of kinase mixture (Kinase (2 ul)+ATP (2 ul)+Substrate (2 ul)+Compound (4 ul)). Kinase final concentrations were 0.3 ng/ul of TRKA, 0.1 ng/ul of TRKB, 0.03 ng/ul of TRKC, respectively. ATP final concentrations were 14.7 uM (TRKA), 4.77 uM (TRKB), 25.6 uM (TRKC) respectively. TK-substrate final concentration was 0.3 ng/ul. The mixtures exposed to Dose response concentration (DRC) compound from 0 to 100 nM for 40 min. During the kinase reaction step, the kinase reaction was started by the addition of ATP. Kinase phosphorylates the substrate.
The second is detection step. 10 ul of detection reagents (5 ul Sa-XL 665 in EDTA+5 ul TK Antibody-Eu in EDTA) was added to kinase mixture. This step was performed at room temperature for 1 hr. The detection reagent detects phosphorylated substrates.
Finally 384-well reaction plate was then read on FlexStation 3 machine. The fluorescence was measured at 620 nm (Cryptate) and 665 nm (XL665). A ratio is calculated ([…]/620)×10^4 for each well. The IC50 value was derived through a curve fitting using GraphPad Prism. Table 1 below includes the results of the assays.

Structures are written as SMILES.

In general, IC50 refers to the point on the concentration scale where inhibition reaches its midpoint. With `Fc1ccc(F)c(C2CCCN2c2ccn3ncc(-c4nnc(C5CC5)s4)c3n2)c1` (stereo not drawn) [Chemical Compound 8, 2-cyclopropyl-5-(5-(2-(2,5-difluorophenyl)pyrrolidin-1-yl)pyrazolo[1,5-a]pyrimidin-3-yl)-1,3,4-thiadiazole], the half-inhibitory concentration (IC50) is under 10 nM in assay [1], under 100 nM in assay [2] and under 10 nM in assay [3].
With `CC(C)(C)c1nnc(-c2cnn3ccc(N4CCCC4c4cc(F)ccc4F)nc23)o1` (stereo not drawn) [Chemical Compound 9, 2-tert-butyl-5-(5-(2-(2,5-difluorophenyl)pyrrolidin-1-yl)pyrazolo[1,5-a]pyrimidin-3-yl)-1,3,4-oxadiazole], the IC50 in assay [1], in assay [2] and in assay [3] was under 10 nM each time.
For `CC(C)(C)c1nnc(-c2cnn3ccc(N4CCCC4c4cc(F)ccc4F)nc23)s1` (stereo not drawn) [Chemical Compound 10, 2-tert-butyl-5-(5-(2-(2,5-difluorophenyl)pyrrolidin-1-yl)pyrazolo[1,5-a]pyrimidin-3-yl)-1,3,4-thiadiazole], the IC50 in assay [1], in assay [2] and in assay [3] was under 10 nM each time.
With `Cc1nnc(-c2cnn3ccc(N4CCCC4c4cncc(F)c4)nc23)s1` (stereo not drawn) [Chemical Compound 11, 2-(5-(2-(5-fluoropyridin-3-yl)pyrrolidin-1-yl)pyrazolo[1,5-a]pyrimidin-3-yl)-5-methyl-1,3,4-thiadiazole], the IC50 is under 100 nM in assay [1], under 100 nM in assay [2] and under 10 nM in assay [3].
`CCc1nnc(-c2cnn3ccc(N4CCCC4c4cncc(F)c4)nc23)s1` (stereo not drawn) [Chemical Compound 12, 2-ethyl-5-(5-(2-(5-fluoropyridin-3-yl)pyrrolidin-1-yl)pyrazolo[1,5-a]pyrimidin-3-yl)-1,3,4-thiadiazole]: the 50% inhibitory concentration (IC50) in assay [1] was under 100 nM; in assay [2] it was under 100 nM; in assay [3], under 10 nM.
For the molecule `CC(C)c1nnc(-c2cnn3ccc(N4CCCC4c4cncc(F)c4)nc23)s1` (stereo not drawn) [Chemical Compound 13, 2-(5-(2-(5-fluoropyridin-3-yl)pyrrolidin-1-yl)pyrazolo[1,5-a]pyrimidin-3-yl)-5-isopropyl-1,3,4-thiadiazole], the IC50 in assay [1] was under 100 nM; in assay [2], under 100 nM; in assay [3] it was under 10 nM.
For `Fc1cncc(C2CCCN2c2ccn3ncc(-c4nnc(C5CC5)s4)c3n2)c1` (stereo not drawn) [Chemical Compound 14, 2-cyclopropyl-5-(5-(2-(5-fluoropyridin-3-yl)pyrrolidin-1-yl)pyrazolo[1,5-a]pyrimidin-3-yl)-1,3,4-thiadiazole], the 50% inhibitory concentration (IC50) in assay [1] is under 100 nM; in assay [2] it was under 100 nM; in assay [3], under 10 nM.
As for `CC(C)(C)c1nnc(-c2cnn3ccc(N4CCCC4c4cncc(F)c4)nc23)s1` (stereo not drawn) [Chemical Compound 15, 2-tert-butyl-5-(5-(2-(5-fluoropyridin-3-yl)pyrrolidin-1-yl)pyrazolo[1,5-a]pyrimidin-3-yl)-1,3,4-thiadiazole], the IC50 in assay [1] is under 100 nM; in assay [2] it was under 100 nM; in assay [3], under 10 nM.
Take `CC(C)(C)c1nnc(-c2cnn3ccc(N4CCCC4c4cncc(F)c4)nc23)o1` (stereo not drawn) [Chemical Compound 16, 2-tert-butyl-5-(5-(2-(5-fluoropyridin-3-yl)pyrrolidin-1-yl)pyrazolo[1,5-a]pyrimidin-3-yl)-1,3,4-oxadiazole]: the IC50 in assay [1] is under 100 nM; in assay [2], under 100 nM; in assay [3], under 10 nM.
Turning to `CC(C)c1nnc(-c2cnn3ccc(N4CCC[C@@H]4c4cncc(F)c4)nc23)s1` [Chemical Compound 17, (R)-2-(5-(2-(5-fluoropyridin-3-yl)pyrrolidin-1-yl)pyrazolo[1,5-a]pyrimidin-3-yl)-5-isopropyl-1,3,4-thiadiazole], the IC50 in assay [1], in assay [2] and in assay [3] was under 10 nM throughout.
For the molecule `CC(C)(C)c1nnc(-c2cnn3ccc(N4C[C@@H](F)C[C@@H]4c4cc(F)ccc4F)nc23)o1` [Chemical Compound 26, 2-tert-butyl-5-(5-((2R,4S)-2-(2,5-difluorophenyl)-4-fluoropyrrolidin-1-yl)pyrazolo[1,5-a]pyrimidin-3-yl)-1,3,4-oxadiazole], the IC50 in assay [1], in assay [2] and in assay [3] was under 10 nM in each case.
`CC(C)(C)c1nnc(-c2cnn3ccc(N4C[C@@H](F)C[C@H]4c4cc(F)ccc4F)nc23)o1` [Chemical Compound 27, 2-tert-butyl-5-(5-((2S,4S)-2-(2,5-difluorophenyl)-4-fluoropyrrolidin-1-yl)pyrazolo[1,5-a]pyrimidin-3-yl)-1,3,4-oxadiazole]: the concentration for half-maximal inhibition (IC50) is over 1000 nM in assay [1], over 1000 nM in assay [2] and over 100 nM in assay [3].
As for `COc1ncc(F)cc1C1CCCN1c1ccn2ncc(-c3nnc(C(C)(C)C)o3)c2n1` (stereo not drawn) [Chemical Compound 28, 2-tert-butyl-5-(5-(2-(5-fluoro-2-methoxypyridin-3-yl)pyrrolidin-1-yl)pyrazolo[1,5-a]pyrimidin-3-yl)-1,3,4-oxadiazole], the IC50 in assay [1], in assay [2] and in assay [3] was under 10 nM in each case.
As for `Fc1ccc(F)c(C2CCCN2c2ccn3ncc(-c4cnco4)c3n2)c1` (stereo not drawn) [Chemical Compound 29, 5-(5-(2-(2,5-difluorophenyl)pyrrolidin-1-yl)pyrazolo[1,5-a]pyrimidin-3-yl)oxazole], the IC50 in assay [1] is under 100 nM; in assay [2] it was under 100 nM; in assay [3], under 10 nM.
`Fc1ccc(F)c(C2CCCN2c2ccn3ncc(-c4cnoc4)c3n2)c1` (stereo not drawn) [Chemical Compound 30, 4-(5-(2-(2,5-difluorophenyl)pyrrolidin-1-yl)pyrazolo[1,5-a]pyrimidin-3-yl)isoxazole]: the IC50 in assay [1] was under 100 nM; in assay [2] it was under 100 nM; in assay [3], under 10 nM.
